According to PMC9867241, “Antioxidant and Cytotoxic Activity of New Polyphenolic Derivatives of Quinazolin-4(3H)-one: Synthesis and In Vitro Activities Evaluation” (Pharmaceutics, 2022):
Values after ≈ are worked out from the molar mass of the structure shown.

Columns and labels:
[1] = test system: A549 (lung adenocarcinoma) cells; assay: Cytotoxicity, Alamar blue assay, A549 cells; type: cell-based; details: Homo sapiens, 24 h exposure
Text: (§1) Normal human foreskin (BJ) fibroblasts and two types of cancer cells, namely A549 (lung adenocarcinoma) and LNCaP (prostate carcinoma) purchased from American Type Culture Collection (Manassas, VA, USA), were used in the experiments. Each cell line was maintained in a different culture medium, depending on the metabolic necessities of the cells. BJ cells were maintained in Dulbecco’s modified Eagle’s medium (DMEM) with low glucose. A549 cells were maintained in DMEM with high glucose […], while LNCaP cells were grown in Roswell Park Memorial Institute (RPMI) 1640 medium with high glucose (5 g/L). All media used were supplemented with 10% fetal bovine serum (FBS) and were refreshed every two days. Cells were used in experiments or subcultured when they reached 70–80% confluence.
(§2) In 100 µL in 96-well plates, a number of 30,000 LNCaP cells, 15,000 A549 cells, and 7500 normal (BJ) cells were seeded. Because the cells have different sizes and volumes, the purpose of the different seedings was to achieve a confluency of 70–80% after 24 h. All types of cells were further exposed to the synthesized compounds (5a–d and 6a–d) for 24 h, at a concentration ranging from 12.5 to 100 µg/mL. Post-exposure, the media were removed, and the cells were washed with phosphate buffer saline (PBS). Their viability was evaluated using Alamar blue (AB) assay as previously described. Briefly, the cells were incubated with a 200 µM resazurin solution for 4 h. Using a Synergy 2 multi-mode microplate reader, we measured the fluorescence. The measurement was performed at λexcitation = 530/25 nm; λemission = 590/35 nm. We conducted the experiments using three biological replicates, each one including 6 technical replicates. As negative controls (NC), cells exposed to culture medium containing 0.2% DMSO were used. Compared to the NC (100%), the results were expressed as relative values. We used IC50 values for the potency evaluation, and calculated them for each cell line, using the dose-effect curves obtained by fitting the experimental data with a 4-parameter logistic curve.
(§3) Mean values ± standard deviation (SD) values of at least three biological replicates were used to calculate experimental data. One-way analysis of variance (ANOVA) with a post hoc Holm–Sidak test was used to statistically examine the data. Using SigmaPlot 11.0 software (Systat, Software Inc., Chicago, IL, USA), we performed the graphical display and data analysis. From a statistical point of view, the results were considered different, at values of p < 0.05.

[2] = NO˙ radical scavenging assay (Griess reaction); details: PBS pH 7.4, sodium nitroprusside
Experimental: The scavenging of the NO˙ radical was performed by applying previously reported protocols. The in vitro protocol describes the decomposition of sodium nitroprusside in phosphate buffered saline (PBS) at pH = 7.4. The NO˙ radicals would be involved in a Griess reaction if they were not captured by the tested compounds. This reaction results from the formation of an azo dye, with maximum absorption at 546 nm. This azo dye is formed from sulfanilic acid and naphthyl ethylenediamine dichloride.

[3] = ABTS˙+ radical scavenging assay
Experimental: (§4) The stock solutions (1 mg/mL) of the tested compounds and the controls were obtained, by dissolving the substances in dimethyl sulfoxide (DMSO). Using Jasco V-530, an UV-VIS spectrophotometer (Jasco International Co., Ltd., Tokyo, Japan), we performed the colorimetric determinations in low-volume single-use 10 mm width cuvettes.
(§5) The assays were performed in triplicate and the results are presented as averages for each assay.

[4] = DPPH˙ radical scavenging assay
Experimental: as §4, §5
The DPPH˙ radical scavenging assay is based on the transfer of one hydrogen from the analyzed compound to the violet stable free radical DPPH˙ (2,2-diphenyl-1-picrylhydrazyl), as we convert it into a yellow compound. The absorbance of the reagent mixed with samples presented inversely proportional values to the amount of DPPH˙ neutralized. The absorbance of the reagent was measured at λ = 517 nm, according to our previous reports. The assay was made in the presence of various concentrations of samples. The used protocol is based on the report of Brand-Williams et al..

[5] = Phosphomolybdate assay for total antioxidant capacity (TAC); parameters: concentration or dose not given beside the values; details: for TAC, % of Activity of Trolox: relative to Trolox; for TAC, % of Activity of Ascorbic Acid: relative to ascorbic acid
Text: Using the phosphomolybdate assay, we determined the total antioxidant capacity (TAC) of the tested compounds. We measured the solutions’ absorbances against a blank sample at λ = 695 nm, using a previously reported procedure by our group, based on initial literature reports. Using Equation (4), we calculated the TAC of 5a–d and 6a–d compounds.
At acidic pH, the tested compounds transfer one electron to Mo^6+ to reduce it to Mo^5+.

[6] = test system: LNCaP (prostate carcinoma) cells; assay: Cytotoxicity, Alamar blue assay, LNCaP cells; type: cell-based; details: Homo sapiens, 24 h exposure
Text: as §1, §2, §3

[7] = Cupric reducing antioxidant capacity (CUPRAC) assay; parameters: concentration or dose not given beside the values; details: for CUPRAC, % of Activity of Trolox: relative to Trolox; for CUPRAC, % of Activity of Ascorbic Acid: relative to ascorbic acid
Experimental: The ability to donate electrons was evaluated for the compounds 5a–d and 6a–d, by the CUPRAC (CUPric reducing antioxidant capacity) method. The absorbance was measured against a blank sample, at λ = 450 nm. The assay was performed based on our group’s previous report by the adaptation of the initial report of Alam et al., Özyürek et al. and Apak et al.. With the use of Equation (4), the cupric ion reduction by compounds 5a–d and 6a–d was expressed as a percentage of the reference compound activity.
The Cu^2+ ions are reduced to Cu^+ ions by the electron-donating compounds. The Cu^+ ions are chelated by neocuproine, giving a colored complex with absorbance proportional to the quantity of Cu^+ ions that resulted.

Compound | IC50 [1] | melting point | % of NO˙ Scavenged [2] | IC50 [3] | IC50 (ABTS˙^+ scavenging) [3] | % of ABTS˙^+ Scavenging ([3]; 0.83 µg/mL) | % of ABTS˙^+ Scavenging ([3]; 1.67 µg/mL) | % of ABTS˙^+ Scavenging ([3]; 3.33 µg/mL) | % of ABTS˙^+ Scavenging ([3]; 4.99 µg/mL) | % of ABTS˙^+ Scavenging ([3]; 6.66 µg/mL) | % of ABTS˙^+ Scavenging ([3]; 9.99 µg/mL) | % of ABTS˙^+ Scavenging ([3]; 13.32 µg/mL) | IC50 [4] | IC50 (DPPH˙ scavenging) [4] | % of DPPH˙ Scavenging ([4]; 1.25 µg/mL) | % of DPPH˙ Scavenging ([4]; 2.5 µg/mL) | % of DPPH˙ Scavenging ([4]; 3.75 µg/mL) | % of DPPH˙ Scavenging ([4]; 5 µg/mL) | % of DPPH˙ Scavenging ([4]; 7.5 µg/mL) | % of DPPH˙ Scavenging ([4]; 10 µg/mL) | also measured
O=C(CSc1nc2ccccc2c(=O)n1Cc1ccccc1)NN=Cc1ccc(O)c(O)c1O [Compound 5b, 2-((3-Benzyl-4-oxo-3,4-dihydroquinazolin-2-yl)thio)-N’-(2,3,4-trihydroxybenzylidene)acetohydrazide] | 69.5 µg/mL | 228 °C | 36.75% | 4.01 µM | 1.91 µg/mL (≈ 4.01 µM) | 34.65% | 49.32% | 68.62% | 85.98% | + (+ represents more than 95%) | + (+ represents more than 95%) | + (+ represents more than 95%) | 7.6 µM | 3.62 µg/mL (≈ 7.6 µM) | 37.55% | 45.21% | 51.00% | 56.36% | 69.66% | 81.12% | % of DPPH˙ Scavenging ([4]; 12.5 µg/mL): + (+ represents more than 95%); % of DPPH˙ Scavenging ([4]; 15 µg/mL): + (+ represents more than 95%); TAC, % of Activity of Trolox [5]: 156.96%; TAC, % of Activity of Ascorbic Acid [5]: 81.34%; IC50 [6]: 70 µg/mL; CUPRAC, % of Activity of Trolox [7]: 92.75%; CUPRAC, % of Activity of Ascorbic Acid [7]: 97.31%
C=CCn1c(SCC(=O)NN=Cc2ccc(O)c(O)c2O)nc2ccccc2c1=O [Compound 5a, 2-((3-Allyl-4-oxo-3,4-dihydroquinazolin-2-yl)thio)-N’-(2,3,4-trihydroxybenzylidene)acetohydrazide] | 30.9 µg/mL | 213 °C | 38.39% | 3.87 µM | 1.65 µg/mL (≈ 3.87 µM) | 38.14% | 51.47% | 72.00% | + (+ represents more than 95%) | + (+ represents more than 95%) | + (+ represents more than 95%) | + (+ represents more than 95%) | 6.47 µM | 2.76 µg/mL (≈ 6.47 µM) | 41.09% | 49.94% | 54.93% | 62.06% | 73.89% | + (+ represents more than 95%) | % of DPPH˙ Scavenging ([4]; 12.5 µg/mL): + (+ represents more than 95%); % of DPPH˙ Scavenging ([4]; 15 µg/mL): + (+ represents more than 95%); TAC, % of Activity of Trolox [5]: 176.42%; TAC, % of Activity of Ascorbic Acid [5]: 91.43%; IC50 [6]: 45.6 µg/mL; CUPRAC, % of Activity of Trolox [7]: 126.56%; CUPRAC, % of Activity of Ascorbic Acid [7]: 132.79%
CCCCn1c(SCC(=O)NN=C(C)c2ccc(O)cc2O)nc2ccccc2c1=O [Compound 6d, 2-((3-butyl-4-oxo-3,4-dihydroquinazolin-2-yl)thio)-N’-(1-(2,4-dihydroxyphenyl)ethylidene)acetohydrazide] | 32.4 µg/mL | 225 °C | 30.71% | 11.7 µM | 5.17 µg/mL (≈ 11.7 µM) | 29.08% | 33.32% | 40.37% | 50.24% | 57.59% | 75.41% | 85.79% | > 30 µM | >15 µg/mL | - (- represents less than 5%) | - (- represents less than 5%) | - (- represents less than 5%) | - (- represents less than 5%) | - (- represents less than 5%) | - (- represents less than 5%) | % of DPPH˙ Scavenging ([4]; 12.5 µg/mL): 10.99%; % of DPPH˙ Scavenging ([4]; 15 µg/mL): 13.87%; TAC, % of Activity of Trolox [5]: 76.63%; TAC, % of Activity of Ascorbic Acid [5]: 39.72%; IC50 [6]: 24.3 µg/mL; CUPRAC, % of Activity of Trolox [7]: 11.25%; CUPRAC, % of Activity of Ascorbic Acid [7]: 11.80%
